test system: Ba/F3 LMNA-NTRK1-G667C cells; assay: Proliferation of Ba/F3 LMNA-NTRK1-G667C cells (CellTiter-Glo); assay type: cell-based, mouse; details: Mus musculus, BaF3, 72 h, Table 4; 72 hours; read-out: Ba/F3 LMNA-NTRK1-G667C, IC50
Description: Ba/F3 LMNA-NTRK1-G667C is a stable transgenic cell line constructed by KYinno Biotechnology Co., Ltd. on mouse primary B cell Ba/F3 wherein NTRK1 has a mutation of G to Cat position 667 and is highly expressed and fused with LMNA to form LMNA-NTRK1-G667C. • [Test method]: Promega's CellTiter-Glo® Luminescent Cell Viability Assay kit was used to evaluate the inhibitory activity of the compounds on the proliferation of Ba/F3 LMNA-NTRK1-G667C cells. • [Instrument]: Spectramax M3 multifunctional microplate reader from Molecular Devices. • [Test materials]: Ba/F3 LMNA-NTRK1-G667C cell line (constructed by KYinno Co., Ltd. (Beijing)), 96-well transparent flat-bottomed black-walled cell culture plate (Corning, cat #3603), RPMI-1640 media (GE, cat #SH30027.01), fetal bovine serum FBS (Thermo Fisher, cat #10099-141), CellTiter-Glo® Luminescent Cell Viability Assay kit (Promega, cat #G7572), PBS (Solarbio, cat #P1020), DMSO (Sigma, cat #D2650). • [Experimental procedure]: When resuscitating Ba/F3 LMNA-NTRK1-G667C cells, the freezing tube was quickly shaken in a 37° C. water bath to melt within 1 minute. The thawed cell suspension was mixed uniformly with RPMI1640 medium containing 10% FBS, centrifuged at 1000 rpm for 5 minutes, and the supernatant discarded. 5 mL of complete medium (RPMI1640 medium with 10% FBS) was taken to resuspend the cell pellets, charged into a cell culture flask with a bottom area of 25 cm^2, and incubated in a cell incubator at 37° C., 95% humidity and 5% CO2. Cells were allowed to passage when the number of cells reached about 10^6 cells/mL. For cell passage, the old cell suspension was directly pipetted evenly, 1/5 of the cell suspension was kept, 4 mL of new complete medium was added, after pipetting evenly, the cell flask was placed in the cell incubator for further culturing. Cell plating was performed when the number of cells reached about 10^6 cells/mL again. For cell plating, 1/5 of the cell suspension was kept for further culturing as in the cell passage method, and the remaining 4/5 of the cell suspension was placed in a 15 mL centrifuge tube, detected for cell viability by Trypan blue exclusion method to ensure that cell viability was above 90%. A cell suspension with a density of 5.56×10^4 viable cells/mL was prepared with complete medium, and 90 μL of such cell suspension was added to a 96-well cell culture plate to obtain the cell density of 5000 viable cells/mL in the cell culture plate. A control group containing no cells, no compound and only complete medium (i.e. culture medium control) and a control group containing no compound but containing cells (i.e. cell control) were set. The cell plate was placed in a cell incubator overnight. The 10 mM compound stock solution in DMSO was first serially diluted with DMSO at a dilution factor of 3.16 times, to obtain 9 concentrations, and the 10th concentration was set as DMSO control without compound. Then, PBS was used to dilute the DMSO solutions of compounds of different concentrations, at a dilution factor of 100 times, so that the DMSO concentration in the compound solution of each concentration was 1%. Finally, 10 μL of each of the above solutions was added to the corresponding cell culture plate, so that the initial compound concentration was 10 μM, with the remaining concentrations being successively diluted at a dilution factor of 3.16 times, and the DMSO content in the cell culture plate was 0.1%. The cell plate was placed in a cell incubator and cultured for 72 hours. For endpoint detection, the CellTiter-Glo reagent was melted, and the cell plate was moved to room temperature to equilibrate for 30 minutes, added with 100 μL of CellTiter-Glo for each well, and shaken on an orbital shaker for 5 minutes to fully lyse the cells. The plate was kept at room temperature for 20 minutes to stabilize the luminescence signal, and the luminescence value of each well was scanned with a multi-functional microplate reader at full wavelength. • [Test samples] […]

Row | IC50 [nM] | Structure (SMILES)
1 | 1.1 | Cn1ncc2cc(Oc3ccc(NC(=O)c4ccc(C5CC5)n(-c5ccc(F)cc5)c4=O)cc3F)c(-c3cn[nH]c3)cc21 [Example 2, N-(3-fluoro-4-(1-methyl-6-(1H-pyrazol-4-yl)-1H-indazol-5-yloxy)phenyl)-1-(4-fluorophenyl)-6-cyclopropyl-2-oxo-1,2-dihydmpyridine-3-carboxamide]
2 | 1.1 | Cc1ccc(C(=O)Nc2ccc(Oc3cc4cnn(C)c4cc3-c3cn[nH]c3)c(F)c2)c(=O)n1-c1ccc(F)cc1 [Merestinib, reference compound]
3 | 2.8 | Cc1ccc(C(=O)Nc2ccc(Oc3cc4cnn(C(C)C)c4cc3-c3cn[nH]c3)c(F)c2)c(=O)n1-c1ccc(F)cc1 [Example 4, N-(3-fluoro-4-(1-isopropyl-6-(1H-pyrazol-4-yl)-1H-indazol-5-yloxy)phenyl)-1-(4-fluorophenyl)-6-methyl-2-oxo-1,2-dihydmpyridine-3-carboxamide]
4 | 1.6 | CCn1ncc2cc(Oc3ccc(NC(=O)c4ccc(C)n(-c5ccc(F)cc5)c4=O)cc3F)c(-c3cn[nH]c3)cc21 [Example 3, N-(3-fluoro-4-(1-ethyl-6-(1H-pyrazol-4-yl)-1H-indazol-5-yloxy)phenyl)-1-(4-fluorophenyl)-6-methyl-2-oxo-1,2-dihydmpyridine-3-carboxamide]
5 | 2 | Cn1ncc2cc(Oc3ccc(NC(=O)c4ccc(C(F)(F)F)n(-c5ccc(F)cc5)c4=O)cc3F)c(-c3cn[nH]c3)cc21 [Example 1, N-(3-fluoro-4-(1-methyl-6-(1H-pyrazol-4-yl)-1H-indazol-5-yloxy)phenyl)-1-(4-fluorophenyl)-6-trifluoromethyl-2-oxo-1,2-dihydmpyridine-3-carboxamide monomethanesulfonate]
6 | 0.66 | CC(C)c1ccc(C(=O)Nc2ccc(Oc3cc4cnn(C)c4cc3-c3cn[nH]c3)c(F)c2)c(=O)n1-c1ccc(F)cc1 [Example 6, N-(3-fluoro-4-(1-methyl-6-(1H-pyrazol-4-yl)-1H-indazol-5-yloxy)phenyl)-1-(4-fluorophenyl)-6-isopropyl-2-oxo-1,2-dihydropyridine-3-carboxamide]
7 | < 1 | CCc1ccc(C(=O)Nc2ccc(Oc3cc4cnn(C)c4cc3-c3cn[nH]c3)c(F)c2)c(=O)n1-c1ccc(F)cc1 [Example 5, N-(3-fluoro-4-(1-methyl-6-(1H-pyrazol-4-yl)-1H-indazol-5-yloxy)phenyl)-1-(4-fluorophenyl)-6-ethyl-2-oxo-1,2-dihydropyridine-3-carboxamide]

same assay, conditions: Mus musculus, BaF3, Table 4-1; separate test; read-out: Ba/F3 LMNA-NTRK1-G667C, IC50

Row | IC50 [nM] | Structure (SMILES)
8 | < 1 | COc1ccc(C(=O)Nc2ccc(Oc3cc4cnn(C)c4cc3-c3cn[nH]c3)c(F)c2)c(=O)n1-c1ccc(F)cc1 [Example 12, N-(3-fluoro-4-(1-methyl-6-(1H-pyrazol-4-yl)-1H-indazol-5-yloxy)phenyl)-1-(4-fluorophenyl)-6-methoxy-2-oxo-1,2-dihydropyridine-3-carboxamide]
9 | 1 | Cc1ccc(C(=O)Nc2ccc(Oc3cc4cnn(C)c4cc3-c3cn[nH]c3)c(F)c2)c(=O)n1-c1ccc(F)cc1 [Merestinib, reference compound]
10 | 1 | CCn1ncc2cc(Oc3ccc(NC(=O)c4ccc(OC)n(-c5ccc(F)cc5)c4=O)cc3F)c(-c3cn[nH]c3)cc21 [Example 23, N-(3-fluoro-4-(1-ethyl-6-(1H-pyrazol-4-yl)-1H-indazol-5-yloxy)phenyl)-1-(4-fluorophenyl)-6-methoxy-2-oxo-1,2-dihydropyridine-3-carboxamide]
11 | 1 | CCc1ccc(C(=O)Nc2ccc(Oc3cc4cnn(CC)c4cc3-c3cn[nH]c3)c(F)c2)c(=O)n1-c1ccc(F)cc1 [Example 18, N-(3-fluoro-4-(1-ethyl-6-(1H-pyrazol-4-yl)-1H-indazol-5-yloxy)phenyl)-1-(4-fluorophenyl)-6-ethyl-2-oxo-1,2-dihydropyridine-3-carboxamide]

same assay, conditions: Mus musculus, BaF3, Table 4-2; separate test; read-out: Ba/F3 LMNA-NTRK1-G667C, IC50

Row | Structure (SMILES) | IC50 [nM]
12 | CSc1ccc(C(=O)Nc2ccc(Oc3cc4cnn(C)c4cc3-c3cn[nH]c3)c(F)c2)c(=O)n1-c1ccc(F)cc1 [Example 11, N-(3-fluoro-4-(1-methyl-6-(1H-pyrazol-4-yl)-1H-indazol-5-yloxy)phenyl)-1-(4-fluorophenyl)-6-methylthio-2-oxo-1,2-dihydropyidine-3-carboxamide] | 10.5
13 | Cn1ncc2cc(Oc3ccc(NC(=O)c4ccc(OC5CC5)n(-c5ccc(F)cc5)c4=O)cc3F)c(-c3cn[nH]c3)cc21 [Example 15, N-(3-fluoro-4-(1-methyl-6-(1H-pyrazol-4-yl)-1H-indazol-5-yloxy)phenyl)-1-(4-fluorophenyl)-6-cyclopropoxy-2-oxo-1,2-dihydropyridine-3-carboxamide] | 10.8
14 | CC(C)Oc1ccc(C(=O)Nc2ccc(Oc3cc4cnn(C)c4cc3-c3cn[nH]c3)c(F)c2)c(=O)n1-c1ccc(F)cc1 [Example 16, N-(3-fluoro-4-(1-methyl-6-(1H-pyrazol-4-yl)-1H-indazol-5-yloxy)phenyl)-1-(4-fluorophenyl)-6-isopropoxy-2-oxo-1,2-dihydropyridine-3-carboxamide] | 10.7

The next lines start with the values.

Row | IC50 [nM] | Structure (SMILES)
15 | 14.1 | Cc1ccc(C(=O)Nc2ccc(Oc3cc4cnn(C)c4cc3-c3cn[nH]c3)c(F)c2)c(=O)n1-c1ccc(F)cc1 [Merestinib, reference compound]
16 | 17.5 | CCn1ncc2cc(Oc3ccc(NC(=O)c4ccc(OC(C)C)n(-c5ccc(F)cc5)c4=O)cc3F)c(-c3cn[nH]c3)cc21 [Example 26, N-(3-fluoro-4-(1-ethyl-6-(1H-pyrazol-4-yl)-1H-indazol-5-yloxy)phenyl)-1-(4-fluorophenyl)-6-isopropoxy-2-oxo-1,2-dihydropyridine-3-carboxamide]

same assay, conditions: Mus musculus, BaF3, Table 9; read-out: Ba/F3 LMNA-NTRK1-G667C cell proliferation inhibitory activity (IC50)

Row | IC50 [nM] | Structure (SMILES)
17 | 19.8 | COc1ccc(C(=O)Nc2ccc(Oc3cc4cnn5c4c(c3-c3cn[nH]c3)CC5)c(F)c2)c(=O)n1-c1ccc(F)cc1 [Example 28, N-(4-((5-(1H-pyrazol-4-yl)-6,7-dihydropyrrolo[3,2,1-hi]-indazol-4-yl)oxy)-3-fluorophenyl)-1-(4-fluorophenyl)-6-methoxy-2-oxo-1,2-dihydropyidine-3-carboxamide]
18 | 19 | CCOc1ccc(C(=O)Nc2ccc(Oc3cc4cnn5c4c(c3-c3cn[nH]c3)CC5)c(F)c2)c(=O)n1-c1ccc(F)cc1 [Example 32, N-(4-((5-(1H-pyrazol-4-yl)-6,7-dihydropyrrolo[3,2,1-hi]-indazol-4-yl)oxy)-3-fluorophenyl)-6-ethoxy-1-(4-fluorophenyl)-2-oxo-12-dihydropyridine-3-carboxamide]
19 | 33 | Cc1ccc(C(=O)Nc2ccc(Oc3cc4cnn5c4c(c3-c3cn[nH]c3)CC5)c(F)c2)c(=O)n1-c1ccc(F)cc1 [Example 31, N-(4-((5-(1H-pyrazol-4-yl)-6,7-dihydropyrrolo[3,2,1-hi]-indazol-4-yl)oxy)-3-fluorophenyl)-1-(4-fluorophenyl)-6-methyl-2-oxo-1,2-dihydropyridine-3-carboxamide]
20 | 23.7 | CC(C)Oc1ccc(C(=O)Nc2ccc(Oc3cc4cnn5c4c(c3-c3cn[nH]c3)CC5)c(F)c2)c(=O)n1-c1ccc(F)cc1 [Example 34, N-(4-((5-(1H-pyrazol-4-yl)-6,7-dihydropyrrolo[3,2,1-hi]-indazol-4-yl)oxy)-3-fluorophenyl)-1-(4-fluorophenyl)-6-isopropoxy-2-oxo-12-dihydropyrndine-3-carboxamide]

same assay, conditions: Table 4-2; separate test; read-out: Ba/F3 LMNA-NTRK1-G667C, IC50

Row | Structure (SMILES) | IC50 [nM]
21 | CCOc1ccc(C(=O)Nc2ccc(Oc3cc4cnn(CC)c4cc3-c3cn[nH]c3)c(F)c2)c(=O)n1-c1ccc(F)cc1 [Example 24, N-(3-fluoro-4-(1-ethyl-6-(1H-pyrazol-4-yl)-1H-indazol-5-yloxy)phenyl)-1-(4-fluorophenyl)-6-ethoxy-2-oxo-12-dihydropyridine-3-carboxamide] | 17.3

From patent US11952364B2, “TRK inhibitors useful as anticancer drugs” (TYLIGAND BIOSCIENCE (SHANGHAI) LIMITED, priority 2018, dated 2024)
